Data from ChEMBL document CHEMBL1909046, “DrugMatrix in vitro pharmacology data”.

Experiments:
Cytochrome P450 2D6 = Cytochrome P450 2D6 (Homo sapiens, UniProt P10635); conditions: bti-tn-5b1-4; also: in other assays of this panel Not Active means under 50% inhibition at 10 µM
[1] = molecular target: Prostaglandin G/H synthase 1 (Homo sapiens, UniProt P23219); assay: biochemical; format: tissue-based, Platelet; conditions: platelet;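 also: inhibition of COX-1 enzyme activity, with arachidonic acid supplied as substrate; in other assays of this panel Not Active means under 50% inhibition at 10 µM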
[2] = DRUGMATRIX: Phosphodiesterase PDE3 enzyme inhibition (substrate: [3H]cAMP + cAMP); format: tissue-based, Homo sapiens; conditions: platelet; Not Active = under 50% inhibition at 10 µM
[3] = DRUGMATRIX: Glutamate, NMDA, Agonism radioligand binding (ligand: [3H] CGP-39653); format: cell membranes, Rattus norvegicus, Wistar, Cerebral cortex, Membrane; conditions: Not Active = under 50% inhibition at 10 µM
[4] = molecular target: Aldo-keto reductase family 1 member B1 (Rattus norvegicus, UniProt P07943); assay: biochemical; format: tissue-based, Lens of camera-type eye;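 also: inhibition of aldose reductase enzyme activity, measured with DL-glyceraldehyde as the substrate; in other assays of this panel Not Active means under 50% inhibition at 10 µM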
[5] = DRUGMATRIX: Calcium Channel Type L, Benzothiazepine radioligand binding (ligand: [3H] Diltiazem); format: cell membranes, Rattus norvegicus, Wistar, Brain, Membrane; conditions: Not Active = under 50% inhibition at 10 µM
D(4) dopamine receptor = molecular target: T1, D(4) dopamine receptor (Homo sapiens, UniProt P21917); assay: DRUGMATRIX: Dopamine D4.2 radioligand binding (ligand: [3H] Spiperone); format: cell membranes, CHO-K1, Membrane; conditions: cho-k1; Not Active = under 50% inhibition at 10 µM
T1 sequence (P21917 whole entry): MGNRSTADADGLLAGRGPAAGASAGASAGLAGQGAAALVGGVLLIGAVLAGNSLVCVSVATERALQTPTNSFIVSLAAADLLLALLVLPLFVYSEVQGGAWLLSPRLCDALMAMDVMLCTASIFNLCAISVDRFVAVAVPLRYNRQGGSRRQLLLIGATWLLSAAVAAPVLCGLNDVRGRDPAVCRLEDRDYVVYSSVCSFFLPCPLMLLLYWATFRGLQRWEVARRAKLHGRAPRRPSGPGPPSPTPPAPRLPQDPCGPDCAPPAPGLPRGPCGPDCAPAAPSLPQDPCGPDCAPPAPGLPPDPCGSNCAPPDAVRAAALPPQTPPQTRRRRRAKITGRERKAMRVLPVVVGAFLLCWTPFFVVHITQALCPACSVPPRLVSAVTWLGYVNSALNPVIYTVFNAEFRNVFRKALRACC

Chain of Cytochrome P450 2D6 (P10635 whole entry): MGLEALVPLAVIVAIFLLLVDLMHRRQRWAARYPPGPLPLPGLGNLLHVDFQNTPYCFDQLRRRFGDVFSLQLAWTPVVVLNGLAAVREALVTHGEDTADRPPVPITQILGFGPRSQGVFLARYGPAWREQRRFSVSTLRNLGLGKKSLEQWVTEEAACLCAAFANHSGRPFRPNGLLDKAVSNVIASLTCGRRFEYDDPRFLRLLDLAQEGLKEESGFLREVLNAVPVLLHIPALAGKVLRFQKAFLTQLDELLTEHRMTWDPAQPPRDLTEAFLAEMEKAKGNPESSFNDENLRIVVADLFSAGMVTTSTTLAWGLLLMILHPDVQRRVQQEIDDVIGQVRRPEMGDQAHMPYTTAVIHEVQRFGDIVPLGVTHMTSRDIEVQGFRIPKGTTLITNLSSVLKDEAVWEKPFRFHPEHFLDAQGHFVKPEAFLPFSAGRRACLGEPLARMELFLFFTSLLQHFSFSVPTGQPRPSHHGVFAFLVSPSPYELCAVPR
Chain of Prostaglandin G/H synthase 1 (P23219 whole entry): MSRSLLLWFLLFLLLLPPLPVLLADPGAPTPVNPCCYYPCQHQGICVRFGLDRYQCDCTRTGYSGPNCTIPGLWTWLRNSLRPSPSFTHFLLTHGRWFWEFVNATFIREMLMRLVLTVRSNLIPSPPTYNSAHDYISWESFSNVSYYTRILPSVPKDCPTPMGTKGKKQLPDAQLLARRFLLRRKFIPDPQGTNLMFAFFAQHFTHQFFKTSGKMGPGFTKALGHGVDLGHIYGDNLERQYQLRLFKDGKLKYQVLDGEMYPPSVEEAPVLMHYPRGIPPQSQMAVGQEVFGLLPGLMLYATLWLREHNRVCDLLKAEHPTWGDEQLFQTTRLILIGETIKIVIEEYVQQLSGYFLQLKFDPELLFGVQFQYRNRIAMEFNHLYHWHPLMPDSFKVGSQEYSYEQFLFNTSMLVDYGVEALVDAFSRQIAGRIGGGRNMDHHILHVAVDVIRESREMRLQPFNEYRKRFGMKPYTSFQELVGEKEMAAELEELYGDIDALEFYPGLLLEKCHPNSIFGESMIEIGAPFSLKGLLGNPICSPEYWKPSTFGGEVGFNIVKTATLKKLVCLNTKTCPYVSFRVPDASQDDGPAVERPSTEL

CC[C@H]1OC(=O)[C@H](C)[C@@H](O[C@H]2C[C@@](C)(OC)[C@@H](O)[C@H](C)O2)[C@H](C)[C@@H](O[C@@H]2O[C@H](C)C[C@H](N(C)C)[C@H]2O)[C@](C)(O)C[C@@H](C)C(=O)[C@H](C)[C@@H](O)[C@]1(C)O [ERYTHROMYCIN]
Not Active: IC50 (Cytochrome P450 2D6) | Ki (Cytochrome P450 2D6) | IC50 [1] | IC50 [2] | Ki [2] | IC50 [3] | Ki [3] | IC50 [4] | IC50 [5] | Ki [5] | IC50 (D(4) dopamine receptor)

CC12CCC(CC1)C(C)(C)O2 [EUCALYPTOL]
Not Active: IC50 (Cytochrome P450 2D6) | Ki (Cytochrome P450 2D6) | IC50 [1] | IC50 [2] | Ki [2] | IC50 [3] | Ki [3] | IC50 [4] | IC50 [5] | Ki [5] | IC50 (D(4) dopamine receptor)

NC(N)=Nc1nc(CSCCC(N)=NS(N)(=O)=O)cs1 [FAMOTIDINE]
Not Active: IC50 (Cytochrome P450 2D6) | Ki (Cytochrome P450 2D6) | IC50 [1] | IC50 [2] | Ki [2] | IC50 [3] | Ki [3] | IC50 [4] | IC50 [5] | Ki [5] | IC50 (D(4) dopamine receptor)

COC(=O)Nc1nc2ccc(Sc3ccccc3)cc2[nH]1 [FENBENDAZOLE]
Not Active: IC50 (Cytochrome P450 2D6) | Ki (Cytochrome P450 2D6) | IC50 [1] | IC50 [2] | Ki [2] | IC50 [3] | Ki [3] | IC50 [4] | IC50 [5] | Ki [5] | IC50 (D(4) dopamine receptor)

COc1cc(/C=C/C(=O)O)ccc1O [FERULATE]
Not Active: IC50 (Cytochrome P450 2D6) | Ki (Cytochrome P450 2D6) | IC50 [1] | IC50 [2] | Ki [2] | IC50 [3] | Ki [3] | IC50 [4] | IC50 [5] | Ki [5] | IC50 (D(4) dopamine receptor)

Nc1nc(F)nc2c1ncn2[C@@H]1O[C@H](CO)[C@@H](O)[C@@H]1O [FLUDARABINE]
Not Active: IC50 (Cytochrome P450 2D6) | Ki (Cytochrome P450 2D6) | IC50 [1] | IC50 [2] | Ki [2] | IC50 [3] | Ki [3] | IC50 [4] | IC50 [5] | Ki [5] | IC50 (D(4) dopamine receptor)

C[C@H](C(=O)O)c1ccc2oc(-c3ccc(F)cc3)nc2c1 [FLUNOXAPROFEN]
Not Active: IC50 (Cytochrome P450 2D6) | Ki (Cytochrome P450 2D6) | IC50 [1] | IC50 [2] | Ki [2] | IC50 [3] | Ki [3] | IC50 [4] | IC50 [5] | Ki [5] | IC50 (D(4) dopamine receptor)

COc1ccc(Cl)cc1C(=O)NCCc1ccc(S(=O)(=O)NC(=O)NC2CCCCC2)cc1 [GLYBURIDE]
Not Active: IC50 (Cytochrome P450 2D6) | Ki (Cytochrome P450 2D6) | IC50 [1] | IC50 [2] | Ki [2] | IC50 [3] | Ki [3] | IC50 [4] | IC50 [5] | Ki [5] | IC50 (D(4) dopamine receptor)

O=C(O)CO [GLYCOLIC ACID]
Not Active: IC50 (Cytochrome P450 2D6) | Ki (Cytochrome P450 2D6) | IC50 [1] | IC50 [2] | Ki [2] | IC50 [3] | Ki [3] | IC50 [4] | IC50 [5] | Ki [5] | IC50 (D(4) dopamine receptor)

Clc1cc(Cl)c(OCC#CI)cc1Cl [HALOPROGIN]
Not Active: IC50 (Cytochrome P450 2D6) | Ki (Cytochrome P450 2D6) | IC50 [1] | IC50 [2] | Ki [2] | IC50 [3] | Ki [3] | IC50 [4] | IC50 [5] | Ki [5] | IC50 (D(4) dopamine receptor)

COC(=O)C[C@](O)(CCC(C)(C)O)C(=O)O[C@@H]1C(OC)=C[C@]23CCCN2CCc2cc4c(cc2[C@H]13)OCO4 [HARRINGTONINE]
Not Active: IC50 (Cytochrome P450 2D6) | Ki (Cytochrome P450 2D6) | IC50 [1] | IC50 [2] | Ki [2] | IC50 [3] | Ki [3] | IC50 [4] | IC50 [5] | Ki [5] | IC50 (D(4) dopamine receptor)

CC(=O)[C@]1(O)Cc2c(O)c3c(c(O)c2[C@@H](O[C@H]2C[C@H](N)[C@H](O)[C@H](C)O2)C1)C(=O)c1ccccc1C3=O [IDARUBICIN]
Not Active: IC50 (Cytochrome P450 2D6) | Ki (Cytochrome P450 2D6) | IC50 [1] | IC50 [2] | Ki [2] | IC50 [3] | Ki [3] | IC50 [4] | IC50 [5] | Ki [5] | IC50 (D(4) dopamine receptor)

CC(C)Cn1cnc2c(N)nc3ccccc3c21 [IMIQUIMOD]
Not Active: IC50 (Cytochrome P450 2D6) | Ki (Cytochrome P450 2D6) | IC50 [1] | IC50 [2] | Ki [2] | IC50 [3] | Ki [3] | IC50 [4] | IC50 [5] | Ki [5] | IC50 (D(4) dopamine receptor)

O=C(NCCN1CCOCC1)c1ccc(Cl)cc1 [MOCLOBEMIDE]
Not Active: IC50 (Cytochrome P450 2D6) | Ki (Cytochrome P450 2D6) | IC50 [1] | IC50 [2] | Ki [2] | IC50 [3] | Ki [3] | IC50 [4] | IC50 [5] | Ki [5] | IC50 (D(4) dopamine receptor)
